Read-outs that look alike come from different tables or passages of the source.
Tests used:
Kv11.1 (hERG) = Kv11.1 (hERG) (Homo sapiens (Human), UniProt Q12809); test: Kv11.1 (hERG) ion channel activity (patch clamp assay), HEK293 cells transfected with hERG gene; conditions: hERG patch clamp assay (cells without asterisk)
DNA-PK = DNA-PK (Homo sapiens (Human), UniProt P78527); test: DNA-PK assay (biochemical), flashplate 33P-ATP kinase assay; conditions: biochemical DNA-PK assay
How it was run: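 Radiometric kinase reaction in streptavidin-coated flashplates, stopped with 200 mM EDTA, then 30 min room-temperature incubation and saline washes.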

[1] = target: DNA-PK phosphorylation at serine 2056 (Homo sapiens (Human), UniProt P78527); test: DNA-PK phosphorylation at serine 2056 (cellular), bleomycin-treated HCT116 cells, ELISA; assay type: cell-based; conditions: cellular DNA-PK phosphorylation at serine 2056, HCT116; read-out: IC50 pDNA-PK
How it was run: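 Test compounds and bleomycin (10 μM) are added to adherent HCT116 cells for 6 h. Detection uses an HRP-based chemiluminescent ELISA, with phospho-DNA-PK signals standardised to total protein.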

Chain of Kv11.1 (hERG) (Q12809 whole entry): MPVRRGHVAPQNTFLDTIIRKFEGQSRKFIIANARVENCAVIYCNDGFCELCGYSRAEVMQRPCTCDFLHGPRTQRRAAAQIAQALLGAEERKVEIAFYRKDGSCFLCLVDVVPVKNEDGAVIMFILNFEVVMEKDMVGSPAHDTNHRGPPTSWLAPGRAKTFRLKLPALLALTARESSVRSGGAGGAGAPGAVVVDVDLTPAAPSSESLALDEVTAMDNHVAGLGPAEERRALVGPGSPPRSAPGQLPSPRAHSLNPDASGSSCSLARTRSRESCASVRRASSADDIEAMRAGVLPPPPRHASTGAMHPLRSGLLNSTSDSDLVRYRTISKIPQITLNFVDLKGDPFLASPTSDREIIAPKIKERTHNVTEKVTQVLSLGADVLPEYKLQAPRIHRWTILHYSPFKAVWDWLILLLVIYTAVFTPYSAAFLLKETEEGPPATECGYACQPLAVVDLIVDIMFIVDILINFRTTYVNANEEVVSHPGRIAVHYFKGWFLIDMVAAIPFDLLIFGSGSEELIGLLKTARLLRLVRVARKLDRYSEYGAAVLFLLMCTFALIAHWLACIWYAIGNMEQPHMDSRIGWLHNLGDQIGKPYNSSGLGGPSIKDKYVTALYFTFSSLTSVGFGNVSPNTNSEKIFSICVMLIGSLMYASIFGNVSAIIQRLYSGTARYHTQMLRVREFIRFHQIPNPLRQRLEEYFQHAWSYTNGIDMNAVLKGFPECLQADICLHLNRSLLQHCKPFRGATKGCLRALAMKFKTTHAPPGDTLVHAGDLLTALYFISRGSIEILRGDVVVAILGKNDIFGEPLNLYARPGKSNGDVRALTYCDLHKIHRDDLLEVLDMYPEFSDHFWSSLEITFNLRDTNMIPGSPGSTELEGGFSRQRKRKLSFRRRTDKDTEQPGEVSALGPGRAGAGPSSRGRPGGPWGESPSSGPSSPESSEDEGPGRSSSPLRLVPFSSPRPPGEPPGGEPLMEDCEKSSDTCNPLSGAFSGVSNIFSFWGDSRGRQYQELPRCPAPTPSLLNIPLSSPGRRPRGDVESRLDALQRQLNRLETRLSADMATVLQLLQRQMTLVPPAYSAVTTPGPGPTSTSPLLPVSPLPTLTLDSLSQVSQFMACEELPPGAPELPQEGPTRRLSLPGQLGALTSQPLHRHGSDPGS

| SMILES | Ki (Kv11.1 (hERG); read-out: Ki [Kv1.11 hERG]) [nM] | IC50 (DNA-PK) [nM] | IC50 [1] [nM] | Ki (Kv11.1 (hERG); Ki [Kv1.11 hERG]) [nM] |
| --- | --- | --- | --- | --- |
| Cc1cc(C(O)c2ccc(F)c(-c3ncnc4cc(N5CCOCC5)ccc34)c2)n(C)c(=O)c1 (stereo not drawn) [Example 340, 6-{[4-Fluoro-3-(7-morpholin-4-yl-quinazolin-4-yl)-phenyl]hydroxy-methyl}-1,4-dimethyl-1H-pyridin-2-one] | > 25000 | < 3 | 500 to 5000 | – |
| OC(c1cc(-c2ncnc3cc(N4CCOCC4)ccc23)c(F)cc1F)c1nncc2sccc12 (stereo not drawn) [Example 341, [2,4-Difluoro-5-(7-morpholin-4-yl-quinazolin-4-yl)-phenyl]thieno[2,3-d}-pyridazin-4-yl-methanol] | – | < 3 | < 500 | 15000 to 25000 |
| OC(c1cc(-c2ncnc3cc(N4CCOCC4)ccc23)c(F)cc1F)c1nncc2ccsc12 (stereo not drawn) [Example 342, [2,4-Difluoro-5-(7-morpholin-4-yl-quinazolin-4-yl)-phenyl]thieno[2,3-d}-pyridazin-7-yl-methanol] | > 25000 | < 3 | < 500 | – |
| OC(c1ccc(F)c(-c2ncnc3cc(N4CCOCC4)ccc23)c1)c1nnc2ccccn12 (stereo not drawn) [Example 343, [4-Fluoro-3-(7-morpholin-4-yl-quinazolin-4-yl)-phenyl]-[1,2,4]-triazolo[4,3-a]pyridin-3-ylmethanol] | – | < 3 | 500 to 5000 | 15000 to 25000 |
| OC(c1ccc(F)c(-c2ncnc3cc(N4CCOCC4)ccc23)c1)c1nnc2ccccn12 (stereo not drawn) [Example 344, [4-Fluoro-3-(7-morpholin-4-yl-quinazolin-4-yl)-phenyl]-[1,2,4]-triazolo[4,3-a]pyridin-3-ylmethanol] | > 25000 | < 3 | 5000 to 10000 | – |
| OC(c1ccc(F)c(-c2ncnc3cc(N4CCOCC4)ccc23)c1)c1ncnn2cccc12 (stereo not drawn) [Example 345, [4-Fluoro-3-(7-morpholin-4-yl-quinazolin-4-yl)-phenyl]pyrrolo[2,1-f]-[1,2,4]triazin-4-yl-methanol] | < 10000 | < 3 | < 500 | – |
| Cn1cnc2c(C(O)c3cc(-c4ncnc5cc(N6CCOCC6)ccc45)c(F)cc3F)ncnc21 (stereo not drawn) [Example 346, [2,4-Difluoro-5-(7-morpholin-4-yl-quinazolin-4-yl)-phenyl]-(9-methyl-9H-purin-6-yl)-methanol] | – | 7 to 30 | 10000 to 30000 | 15000 to 25000 |
| Cn1cnc2c(C(O)c3cc(-c4ncnc5cc(N6CCOCC6)ccc45)c(F)cc3F)ncnc21 (stereo not drawn) [Example 347, [2,4-Difluoro-5-(7-morpholin-4-yl-quinazolin-4-yl)-phenyl]-(9-methyl-9H-purin-6-yl)-methanol] | > 25000 | 3 to 7 | 500 to 5000 | – |
| NC(=O)C(c1cc(-c2ncnc3cc(N4CCOCC4)ccc23)c(F)cc1F)c1nccn2cccc12 (stereo not drawn) [Example 348, 2-[2,4-Difluoro-5-(7-morpholin-4-yl-quinazolin-4-yl)-phenyl]-2-pyrrolo-[1,2-a]pyrazin-1-yl-acetamide] | – | < 3 | 500 to 5000 | 10000 to 15000 |
| Cc1nccnc1Cc1ccc(F)c(-c2ncnc3cc(N4CCOCC4)ccc23)c1 [Example 349, 4-[2-Fluoro-5-(3-methyl-pyrazin-2-ylmethyl)phenyl]-7-morpholin-4-yl-quinazoline] | > 25000 | 3 to 7 | < 500 | – |
| OC(c1cc(-c2ncnc3cc(N4CCOCC4)ccc23)c(F)cc1F)c1cccc2nncn12 (stereo not drawn) [Example 350, [2,4-Difluoro-5-(7-morpholin-4-yl-quinazolin-4-yl)-phenyl]-[1,2,4]-triazolo[4,3-a]pyridin-5-ylmethanol] | > 25000 | 3 to 7 | 5000 to 10000 | – |
| OC(c1ccc(F)c(-c2ncnc3cc(N4CCOCC4)ccc23)c1)c1nccn2cnnc12 (stereo not drawn) [Example 351, [4-Fluoro-3-(7-morpholin-4-yl-quinazolin-4-yl)-phenyl]-[1,2,4]-triazolo[4,3-a]-pyrazin-8-ylmethanol] | > 25000 | 7 to 30 | 10000 to 30000 | – |
| COC(c1ccc(F)c(-c2ncnc3cc(N4CCOCC4)ccc23)c1)c1nccnc1C (stereo not drawn) [Example 353, 4-{2-Fluoro-5-[methoxy-(3-methyl-pyrazin-2-yl)methyl]-phenyl}-7-morpholin-4-ylquinazoline] | > 25000 | 7 to 30 | 10000 to 30000 | – |
| Cc1cnc(C(O)c2ccc(F)c(-c3ncnc4cc(N5CCOCC5)ccc34)c2)c(C)n1 (stereo not drawn) [Example 354, (3,5-Dimethyl-pyrazin-2-yl)-[4-fluoro-3-(7-morpholin-4-yl-quinazolin-4-yl)-phenyl]methanol] | > 25000 | < 3 | < 500 | – |
| Cc1cnc(C(O)c2cc(-c3ncnc4cc(N5CCOCC5)ccc34)c(F)cc2F)c(C)n1 (stereo not drawn) [Example 355, [2,4-Difluoro-5-(7-morpholin-4-yl-quinazolin-4-yl)-phenyl]-(3,5-dimethyl-pyrazin-2-yl)methanol] | – | 3 to 7 | 500 to 5000 | 15000 to 25000 |
| OC(c1ccc(F)c(-c2ncnc3cc(N4CCOCC4)ccc23)c1)c1nccn2cccc12 (stereo not drawn) [Example 356, [4-Fluoro-3-(7-morpholin-4-yl-quinazolin-4-yl)-phenyl]pyrrolo[1,2-a]-pyrazin-1-ylmethanol] | < 10000 | < 3 | < 500 | – |
| COc1ccc(C(O)c2cc(-c3ncnc4cc(N5CCOCC5)ccc34)ccc2F)nn1 (stereo not drawn) [Example 357, [2-Fluoro-5-(7-morpholin-4-yl-quinazolin-4-yl)-phenyl]-(6-methoxy-pyridazin-3-yl)-methanol] | > 25000 | 3 to 7 | 500 to 5000 | – |
| OC(c1cc(-c2ncnc3cc(N4CCOCC4)ccc23)c(F)cc1F)c1nccn2cccc12 (stereo not drawn) [Example 358, [2,4-Difluoro-5-(7-morpholin-4-yl-quinazolin-4-yl)-phenyl]pyrrolo[1,2-a]-pyrazin-1-ylmethanol] | – | < 3 | < 500 | 10000 to 15000 |
| OC(c1cc(-c2ncnc3cc(N4CCOCC4)ccc23)c(F)cc1Cl)c1nccn2cccc12 (stereo not drawn) [Example 359, [2-Chloro-4-fluoro-5-(7-morpholin-4-yl-quinazolin-4-yl)-phenyl]pyrrolo[1,2-a]-pyrazin-1-ylmethanol] | < 10000 | < 3 | < 500 | – |
| Cn1c(C(O)c2ccc(F)c(-c3ncnc4cc(N5CCOCC5)ccc34)c2)nccc1=O (stereo not drawn) [Example 360, 2-{[4-Fluoro-3-(7-morpholin-4-yl-quinazolin-4-yl)-phenyl]hydroxy-methyl}-3-methyl-3H-pyrimidin-4-one] | > 25000 | 3 to 7 | 500 to 5000 | – |
| OC(c1cc(-c2ncnc3cc(N4CCOCC4)ccc23)ccc1Cl)c1nccn2cccc12 (stereo not drawn) [Example 361, (2-Chloro-5-(7-morpholin-4-yl-quinazolin-4-yl)-phenyl]pyrrolo[1,2-a]-pyrazin-1-ylmethanol] | < 10000 | 3 to 7 | 500 to 5000 | – |
| OC(c1cc(-c2ncnc3cc(N4CCOCC4)ccc23)ccc1Cl)c1ncnn2cccc12 (stereo not drawn) [Example 362, [2-Chloro-5-(7-morpholin-4-yl-quinazolin-4-yl)-phenyl]pyrrolo[2,1-f]-[1,2,4]triazin-4-yl-methanol] | < 10000 | 3 to 7 | 500 to 5000 | – |
| Cn1c(C(O)c2cc(-c3ncnc4cc(N5CCOCC5)ccc34)ccc2F)cccc1=O (stereo not drawn) [Example 365, 6-{[2-Fluoro-5-(7-morpholin-4-yl-quinazolin-4-yl)-phenyl]hydroxy-methyl}-1-methyl-1H-pyridin-2-one] | > 25000 | 3 to 7 | 500 to 5000 | – |
